According to patent US20220071971A1, “MACROCYCLIC COMPOUNDS AND THEIR USE IN THE TREATMENT OF DISEASE” (NOVARTIS AG, priority 2018, published 2022):

Target: T1, delF508-CFTR (Homo sapiens, UniProt P13569, DEL508-508)
T1 construct: expressed in transfected cells
Assay: Measurement of delF508-CFTR-HRP surface expression in CFBE41o- cells
Type: cell-based
Settings: for EC50: HRP-tagged delF508-CFTR surface expression, CFBE41o- cells, 24 h with compound, 10-point curve, highest concentration 10 μM; for DelF508-CFTR-HRP Amax % / Emax: efficacy relative to reference compound 3-(6-(1-(2,2-difluorobenzo[d][1,3]dioxol-5-yl)cyclopropane-1-carboxamido)-3-methylpyridin-2-yl)benzoic acid; for Emax: CFBE41o-, read-out: DelF508-CFTR-HRP Amax %
Excerpt: Measurement of deIF508-CFTR-HRP Surface Expression in CFBE41o-Cells
This assay quantifies the cell surface expressions of the mutant CFTR channel using an extracellular HRP tag.
A cellular assay was developed to measure surface expression of horseradish peroxidase (HRP) tagged delF508-CFTR in the human bronchial epithelial immortalized CFBE41o-cell line (Phuan, P. W., et al, (2014) Molecular Pharmacology 86:42-51). Specifically, the HRP sequence was inserted into the fourth extracellular loop of delF508-CFTR and stably expressed in CFBE41o-cells. Cells were seeded in 384 well plate at a density of 5000 cells/well and incubated at 37° C. for 12 to 24 hours in medium (Gibco MEM #11095, 10% FBS, 10 mM HEPES, […], 200 μg/mL G418, 3 μg/mL Puromycin). The delF508-CFTR-HRP expression was induced with 500 ng/mL doxycycline (Sigma D-9891, dissolved in H2O and sterile filtered) in medium and the cells were incubated at 37° C. for 48 h. Old medium was removed and fresh medium was added containing 500 ng/mL doxycycline and unknown test compound at required test concentration in DMSO, not exceeding 0.5% final DMSO concentration. The highest concentration tested was 10 μM with a 10-point concentration response curve using a 3-fold dilution. After addition of compounds, the cells were incubated for 24 h at 37° C. On the final day, cells were washed four times in PBS containing 1 mM MgCl2 and 0.1 mM CaCl2. HRP-Substrate (SuperSignal ELISA Pico, Fisher #37069) 20 μl/well was added and the luminescence signal was determined (Viewlux, Perkin Elmer). Light was emitted upon addition of exogenous HRP-Substrate only when delF508-CFTR-HRP reached the cell surface and the HRP tag was accessible to the HRP-Substrate (note: HRP-Substrate cannot cross the lipid bilayer to reach delF508-CFTR-HRP misfolded within the cell).
The median activity for the lowest concentration of the compounds on each assay plate was calculated and this value was used to normalize the signal for each well on the respective plate. Three replicates at each concentrations for every compound were run to determine one EC50. The median value was determined and used to calculate compound activities as described below. Effective half maximal values (EC50) were calculated for each compound by performing logistic regression on measured dose-response data points using the equation: […]
where “Y” is the observed activity, “Bottom” is the lowest observed value, “Top” is the highest observed value, and the “Hill coefficient” gives the largest absolute value of the slope. The curve fitting is carried out by a curve fitting program implemented at GNF using Matlab (Mathworks).
The dose response curves also were used to calculate Fold Change (FC) using the equation: […]
Compound efficacy relative to the reference compound 3-(6-(1-(2,2-difluorobenzo[d][1,3]dioxol-5-yl)cyclopropane-1-carboxamido)-3-methylpyridin-2-yl)benzoic acid was determined using the following formula: […]

T1 sequence (P13569 with tags, fused parts or gaps DEL508-508): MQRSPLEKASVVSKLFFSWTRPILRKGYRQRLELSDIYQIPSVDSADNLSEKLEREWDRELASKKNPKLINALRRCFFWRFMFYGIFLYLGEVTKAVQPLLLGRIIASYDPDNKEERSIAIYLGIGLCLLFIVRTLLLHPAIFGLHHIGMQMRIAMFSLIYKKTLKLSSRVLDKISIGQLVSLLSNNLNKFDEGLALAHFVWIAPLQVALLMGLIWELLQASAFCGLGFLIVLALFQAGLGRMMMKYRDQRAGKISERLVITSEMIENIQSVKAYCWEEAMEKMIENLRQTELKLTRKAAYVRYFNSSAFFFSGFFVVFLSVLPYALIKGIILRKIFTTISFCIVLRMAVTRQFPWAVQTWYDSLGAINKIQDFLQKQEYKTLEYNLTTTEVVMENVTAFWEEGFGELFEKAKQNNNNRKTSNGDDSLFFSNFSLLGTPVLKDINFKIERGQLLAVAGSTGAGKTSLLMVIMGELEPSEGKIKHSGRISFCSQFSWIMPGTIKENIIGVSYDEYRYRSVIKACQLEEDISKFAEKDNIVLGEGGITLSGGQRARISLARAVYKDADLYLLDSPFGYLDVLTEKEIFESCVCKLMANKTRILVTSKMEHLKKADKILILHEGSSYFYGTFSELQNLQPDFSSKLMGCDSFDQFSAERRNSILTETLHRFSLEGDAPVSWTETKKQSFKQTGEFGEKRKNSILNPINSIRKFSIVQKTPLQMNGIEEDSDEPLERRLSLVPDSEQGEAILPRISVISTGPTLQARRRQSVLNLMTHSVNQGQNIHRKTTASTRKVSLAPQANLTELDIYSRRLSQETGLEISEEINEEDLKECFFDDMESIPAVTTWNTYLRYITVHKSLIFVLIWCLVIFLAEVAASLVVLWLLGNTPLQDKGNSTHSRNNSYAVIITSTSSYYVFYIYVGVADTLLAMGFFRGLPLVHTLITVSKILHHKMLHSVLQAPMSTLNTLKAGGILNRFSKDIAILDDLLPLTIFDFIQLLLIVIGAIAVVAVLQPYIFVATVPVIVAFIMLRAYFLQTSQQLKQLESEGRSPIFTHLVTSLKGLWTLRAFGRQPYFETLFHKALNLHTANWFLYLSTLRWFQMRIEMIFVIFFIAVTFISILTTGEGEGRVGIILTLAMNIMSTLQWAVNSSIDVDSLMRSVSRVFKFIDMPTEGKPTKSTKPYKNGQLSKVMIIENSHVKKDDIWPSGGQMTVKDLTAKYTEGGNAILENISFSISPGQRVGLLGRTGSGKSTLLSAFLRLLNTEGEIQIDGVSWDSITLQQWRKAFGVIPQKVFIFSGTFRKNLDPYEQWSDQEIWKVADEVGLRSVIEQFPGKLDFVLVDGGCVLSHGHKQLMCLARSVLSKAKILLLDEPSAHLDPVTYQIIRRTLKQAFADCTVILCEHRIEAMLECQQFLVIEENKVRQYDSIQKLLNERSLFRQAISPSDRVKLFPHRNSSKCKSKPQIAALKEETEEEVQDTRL

Row | Compound | EC50 [nM] | DelF508-CFTR-HRP Amax % [%] | Emax [%]
1 | 6-(3-hydroxypropyl)-2^3-(trifluoromethyl)-9-oxa-4-thia-3,6-diaza-2,5(2,6)-dipyridina-1(1,2)-benzenacyclododecaphane 4,4-dioxide [Compound 30] | 1480 | 1656.8 | –
2 | O=S1(=O)Nc2ccc(C(F)(F)F)c(n2)-c2cccnc2NCCCCNc2cccc1n2 [Compound 5, 2^3-(trifluoromethyl)-4-thia-3,6,11-triaza-1(3,2),2,5(2,6)-tripyridinacycloundecaphane 4,4-dioxide] | 1620 | – | 159
3 | O=S1(=O)Nc2ccc(C(F)(F)F)c(n2)-c2cccnc2NCCCCCCNc2cccc1n2 [Compound 7, 2^3-(trifluoromethyl)-4-thia-3,6,13-triaza-1(3,2),2,5(2,6)-tripyridinacyclotridecaphane 4,4-dioxide] | 977 | – | 386
4 | CN1CCCN(C)c2ncccc2-c2nc(ccc2C(F)(F)F)NS(=O)(=O)c2cccc1n2 [Compound 9, 6,10-dimethyl-2^3-(trifluoromethyl)-4-thia-3,6,10-triaza-1(3,2),2,5(2,6)-tripyridinacyclodecaphane 4,4-dioxide] | 1710 | – | 367
5 | O=S1(=O)Nc2ccc(C(F)(F)F)c(n2)-c2cccnc2NCCCNc2cccc1n2 [Compound 10, 2^3-(trifluoromethyl)-4-thia-3,6,10-triaza-1(3,2),2,5(2,6)-tripyridinacyclodecaphane 4,4-dioxide] | 2800 | – | 29
6 | O=S1(=O)Nc2ccc(C(F)(F)F)c(n2)-c2ccccc2COCCCNc2cccc1n2 [Compound 11, 2^3-(trifluoromethyl)-10-oxa-4-thia-3,6-diaza-2,5(2,6)-dipyridina-1(1,2)-benzenacycloundecaphane 4,4-dioxide] | 1360 | – | 442
7 | O=S1(=O)Nc2ccc(C(F)(F)F)c(n2)-c2ccccc2CCCCCCN(CCCCCO)c2cccc1n2 [Compound 12, 6-(5-hydroxypentyl)-2^3-(trifluoromethyl)-4-thia-3,6-diaza-2,5(2,6)-dipyridina-1(1,2)-benzenacyclododecaphane 4,4-dioxide] | 236 | – | –
8 | O=S1(=O)Nc2ccc(C(F)(F)F)c(n2)-c2ccccc2CCCCCN(CCN2CCOCC2)c2cccc1n2 [Compound 13, 6-(2-morpholinoethyl)-2^3-(trifluoromethyl)-4-thia-3,6-diaza-2,5(2,6)-dipyridina-1(1,2)-benzenacycloundecaphane 4,4-dioxide] | 393 | – | 601
9 | O=S1(=O)Nc2ccc(C(F)(F)F)c(n2)-c2ccccc2CCCCCN(CCCCCO)c2cccc1n2 [Compound 15, 6-(5-hydroxypentyl)-2^3-(trifluoromethyl)-4-thia-3,6-diaza-2,5(2,6)-dipyridina-1(1,2)-benzenacycloundecaphane 4,4-dioxide] | 304 | – | 708
10 | O=S1(=O)Nc2ccc(C(F)(F)F)c(n2)-c2ccccc2CCCCCCN(CCCCO)c2cccc1n2 [Compound 16, 6-(4-hydroxybutyl)-2^3-(trifluoromethyl)-4-thia-3,6-diaza-2,5(2,6)-dipyridina-1(1,2)-benzenacyclododecaphane 4,4-dioxide] | 303 | – | –
11 | COc1ccc2nc1-c1ccccc1CCCCCN(CCCCO)c1cccc(n1)S(=O)(=O)N2 [Compound 17, 6-(4-hydroxybutyl)-2^3-methoxy-4-thia-3,6-diaza-2,5(2,6)-dipyridina-1(1,2)-benzenacycloundecaphane 4,4-dioxide] | 2340 | – | 347
12 | O=S1(=O)Nc2ccc(C(F)(F)F)c(n2)-c2cc(F)ccc2OCCCCN(CCCO)c2cccc1n2 [Compound 22, 1^5-fluoro-6-(3-hydroxypropyl)-2^3-(trifluoromethyl)-11-oxa-4-thia-3,6-diaza-2,5(2,6)-dipyridina-1(1,2)-benzenacycloundecaphane 4,4-dioxide] | 603 | – | 666

Further compounds by falling EC50, results first:

Row | EC50 [nM] | DelF508-CFTR-HRP Amax % [%] | Emax [%] | Compound
13 | 2870 | – | 74.4 | O=C(O)CN1CCCCOc2ccccc2-c2nc(ccc2C(F)(F)F)NS(=O)(=O)c2cccc1n2 [Compound 4, 2-(4,4-dioxido-2^3-(trifluoromethyl)-11-oxa-4-thia-3,6-diaza-2,5(2,6)-dipyridina-1(1,2)-benzenacycloundecaphane-6-yl)acetic acid]
14 | 1680 | – | 248 | O=S1(=O)Nc2ccc(C(F)(F)F)c(n2)-c2cccnc2NCCCCCNc2cccc1n2 [Compound 6, 2^3-(trifluoromethyl)-4-thia-3,6,12-triaza-1(3,2),2,5(2,6)-tripyridinacyclododecaphane 4,4-dioxide]
15 | 1620 | – | 490 | Cc1ccc2nc1-c1ccccc1CCCCCN(CCCCO)c1cccc(n1)S(=O)(=O)N2 [Compound 19, 6-(4-hydroxybutyl)-2^3-methyl-4-thia-3,6-diaza-2,5(2,6)-dipyridina-1(1,2)-benzenacycloundecaphane 4,4-dioxide]
16 | 1410 | 224.1 | – | 8-hydroxy-2^3-(trifluoromethyl)-4-thia-3,6-diaza-2,5(2,6)-dipyridina-1(1,2)-benzenacycloundecaphane 4,4-dioxide [Compound 38]
17 | 978 | – | 372 | O=S1(=O)Nc2ccc(C(F)(F)F)c(n2)-c2ccccc2OCCCCNc2cccc1n2 [Compound 1, 2^3-(trifluoromethyl)-11-oxa-4-thia-3,6-diaza-2,5(2,6)-dipyridina-1(1,2)-benzenacycloundecaphane 4,4-dioxide]
18 | 645 | – | 802 | CCN1CCCCCc2ccccc2-c2nc(ccc2C(F)(F)F)NS(=O)(=O)c2cccc1n2 [Compound 18, 6-ethyl-2^3-(trifluoromethyl)-4-thia-3,6-diaza-2,5(2,6)-dipyridina-1(1,2)-benzenacycloundecaphane 4,4-dioxide]
19 | 606 | – | 610 | O=S1(=O)Nc2ccc(C(F)(F)F)c(n2)-c2ccccc2OCCCCN(CCO)c2cccc1n2 [Compound 2, 6-(2-hydroxyethyl)-2^3-(trifluoromethyl)-11-oxa-4-thia-3,6-diaza-2,5(2,6)-dipyridina-1(1,2)-benzenacycloundecaphane 4,4-dioxide]
20 | 410 | – | 564 | CN1CCCCCCN(C)c2ncccc2-c2nc(ccc2C(F)(F)F)NS(=O)(=O)c2cccc1n2 [Compound 8, 6,13-dimethyl-2^3-(trifluoromethyl)-4-thia-3,6,13-triaza-1(3,2),2,5(2,6)-tripyridinacyclotridecaphane 4,4-dioxide]
21 | 360 | – | 337 | O=S1(=O)Nc2ccc(C(F)(F)F)c(n2)-c2ccccc2CCCCN(CCCO)c2cccc1n2 [Compound 20, 6-(3-hydroxypropyl)-2^3-(trifluoromethyl)-4-thia-3,6-diaza-2,5(2,6)-dipyridina-1(1,2)-benzenacyclodecaphane 4,4-dioxide]
22 | 335 | – | 361 | CCOC(=O)CN1CCCCOc2ccccc2-c2nc(ccc2C(F)(F)F)NS(=O)(=O)c2cccc1n2 [Compound 3, ethyl 2-(4,4-dioxido-2^3-(trifluoromethyl)-11-oxa-4-thia-3,6-diaza-2,5(2,6)-dipyridina-1(1,2)-benzenacycloundecaphane-6-yl)acetate]
23 | 334 | – | 489 | O=S1(=O)Nc2ccc(C(F)(F)F)c(n2)-c2ccccc2CCCCCN(CCOCCCO)c2cccc1n2 [Compound 14, 6-(2-(3-hydroxypropoxy)ethyl)-2^3-(trifluoromethyl)-4-thia-3,6-diaza-2,5(2,6)-dipyridina-1(1,2)-benzenacycloundecaphane 4,4-dioxide]
24 | 179 | – | 941 | O=S1(=O)Nc2ccc(C(F)(F)F)c(n2)-c2ccccc2CCCCCCN(CCCO)c2cccc1n2 [Compound 21, 6-(3-hydroxypropyl)-2^3-(trifluoromethyl)-4-thia-3,6-diaza-2,5(2,6)-dipyridina-1(1,2)-benzenacyclododecaphane 4,4-dioxide]
